Marks after values point to notes of the source that are not given here.
Test: not given
Conditions: not given

Structure (SMILES)	melting point [°C]
Nc1nsc(C(=O)O)c1Br [E-VIII-015, 3-amino-4-bromo-1,2-thiazole-5-carboxylic acid]	164.5

Test: Measurement of LogP values by HPLC on reversed phase columns (EEC directive 79/831 Annex V.A8)
Assay type: physicochemical
Conditions: not given
Outline: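 LogP measured by reversed-phase HPLC following EEC directive 79/831 Annex V.A8. Lambda-max taken from UV spectra at 200–400 nm at chromatographic peak maxima; diastereoisomer values listed separately.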

Structure (SMILES)	LogP	LogP [a]	LogP [b]
C#CC1(NC(=O)c2snc(NCc3ccc(OC)cc3)c2Cl)CCCCC1 [I-1209]	3.99[a]		
C[C@H](NC(=O)c1snc(N=CN2CCCC2)c1Cl)C1CCCCC1 [II-024]		2.73^[a]	
Cc1ccc(NC(=O)c2snc(N)c2Cl)c(C)c1 [I-923]	2.44[a]		
COc1ccc(CNc2nsc(C(=O)N(Cc3c(C)cc(C)cc3C)C3CC3)c2Cl)cc1 [I-870]	4.94[a]		
Nc1nsc(C(=O)NC2CCc3ccccc32)c1Cl (centres unmarked) [I-140]	2.30[a]		
COc1ccc(CNc2nsc(C(=O)N[C@@H]3CCCC[C@H]3C)c2Cl)cc1 (relative stereo) [I-1551]	4.39[a]		
Cc1ccc(CNC(=O)c2snc(N)c2Cl)c(F)c1F [I-123]	2.26[a]		
CCOC(=O)C1CCC(NC(=O)c2snc(N)c2Cl)CC1 (centres unmarked) [I-844]	2.02[a]		
O=C(NC1CCc2ccccc21)c1snc(Cl)c1Cl (centres unmarked) [E-II-020]		3.70	3.63
C[C@H]1CCCC[C@H]1CNC(=O)c1snc(N)c1I (relative stereo) [I-1541]	2.67[a]		
CC(C)(C)c1ccc2c(c1)CC(NC(=O)c1snc(N)c1Cl)CC2 (centres unmarked) [I-1534]	3.94[a]		
COc1ccc(CNc2nsc(C(=O)NC(C)Cc3ccccc3Cl)c2Cl)cc1 (centres unmarked) [II-010]		4.33^[a]	
COc1ccc(CNc2nsc(C(=O)N3c4ccccc4CCC3C)c2Cl)cc1 (centres unmarked) [II-100]		4.14	4.09
Cc1cc(CNC(=O)c2snc(N)c2Cl)ccc1F [I-349]	2.28[a]		
COc1ccc(CNc2nsc(C(=O)NCc3ccc(F)c(C)c3)c2Cl)cc1 [I-350]	3.89[a]		
COc1ccc(CNc2cc(C(=O)OC(C)C)sn2)cc1 [E-VII-070]		3.63^[a]	
Nc1nsc(C(=O)NC2(c3ccc(F)cc3)CC2)c1Cl [I-023]	2.02[a]		
COc1ccc(CNc2nsc(C(=O)NCc3cccc(Cl)c3C)c2Cl)cc1 [I-1243]	4.20[a]		
CCOc1c(N)nsc1C(=O)NCC1(O)CCCCC1 [I-726]	1.55[a]		
CC1(C)CC1N(Cc1ccc(Cl)cc1Cl)C(=O)c1cc(N)ns1 (centres unmarked) [I-969]	3.48[a]		
COc1ccc(CNc2nsc(C(=O)NC(C)C3(Cl)CC3)c2Cl)cc1 (centres unmarked) [I-1250]	3.90[a]		
CC(=O)N(C(C)=O)c1nsc(C(=O)N(C(C)C)C(C)C)c1Cl [I-975]	2.77[a]		

Structure (SMILES)	LogP	LogP [a]	LogP [b]
CCCS(CC)=Nc1nsc(C(=O)NCc2ccc(F)cc2F)c1F (centres unmarked) [II-094]		1.77^[a]	
COc1c(N)nsc1C(=O)NCc1ccccc1F [I-733]	1.64[a]		
O=C(NCc1ccc(Cl)cc1)c1snc(N(C(=O)c2ccccc2)C(=O)c2ccccc2)c1Cl [I-582]	4.39[a]		
COc1ccc(CNc2nsc(C(=O)NC(C)c3ccc(C(C)C)cc3)c2Cl)cc1 (centres unmarked) [I-1207]	4.69[a]		
C[C@H]1[C@H](CNC(=O)c2snc(N)c2Cl)CCC[C@H]1C (relative stereo) [I-1291]	3.10[a]		
Nc1nsc(C(=O)NCc2cccc(F)c2F)c1Cl [I-120]	1.91[a]		
COc1ccc(CNc2nsc(C(=O)NC3CCOCC3C)c2Cl)cc1 (centres unmarked) [I-1336]	2.80[a]		
CC1CCC(C(C)C)C(NC(=O)c2snc(Cl)c2Cl)C1 (centres unmarked) [E-II-024]		5.72	5.64
COc1ccc(CNc2nsc(C(=O)NCc3ccc(Cl)cc3)c2Cl)cc1 [I-242]	3.99[a]		
Cc1ccc(S(C)=Nc2nsc(C(=O)NCC3CCCCC3)c2Cl)cc1 (centres unmarked) [II-050]		3.51^[a]	
Cc1c(N)nsc1C(=O)NCc1c(F)ccc(F)c1F [I-596]	1.49[a]		
Nc1nsc(C(=O)NCC2CCCC(C(F)(F)F)C2)c1Cl (centres unmarked) [I-139]	2.66[a]		
CCC1CC(C)CC(CC)C1NC(=O)c1snc(NCc2ccc(OC)cc2)c1Cl (centres unmarked) [I-1191]	6.02[a]		
Nc1nsc(C(=O)NCC2CCC(Cl)CC2)c1Cl (centres unmarked) [I-1579]	2.20[a]		
Cc1ccc(S(C)=Nc2nsc(C(=O)NCC3CCCCC3)c2F)cc1 (centres unmarked) [II-054]		3.10^[a]	
COc1ccc(CNc2nsc(C(=O)N(Cc3c(Cl)cccc3Cl)C3CC3)c2Cl)cc1 [I-929]	4.80[a]		
COc1ccc(CNc2nsc(C(=O)N(Cc3cc(Cl)ccc3Br)C3CC3)c2Cl)cc1 [I-989]	4.98[a]		
C=CCNc1nsc(C(=O)NCc2ccccc2F)c1Cl [I-071]	2.89[a]		
COc1ccc(Nc2nsc(C(=O)NCc3ccccc3F)c2Cl)cc1 [I-060]	3.46[a]		
COc1ccc(CNc2nsc(C(=O)N(Cc3ccc(Cl)cc3Cl)C3CC3(C)C)c2Cl)cc1 (centres unmarked) [I-945]	5.87[a]		
Cc1cccc(C)c1NC(=O)c1snc(N)c1Cl [I-924]	2.05[a]		
CCn1nc(C)c(CNC(=O)c2snc(NCc3ccc(OC)cc3)c2Cl)c1C [I-1214]	2.57[a]		

Structure (SMILES)	LogP	LogP [a]	LogP [b]
COc1ccc(CN(C(=O)C(=O)N[C@H](C)C2CCCCC2)c2nsc(C(=O)N[C@H](C)C3CCCCC3)c2Cl)cc1 [I-072]	4.54[a]		
Nc1cc(C(=O)NCc2ccc(F)cc2)sn1 [I-029]	1.27[a]		
CS(C)=Nc1nsc(C(=O)NCC2CCOC2)c1F (centres unmarked) [II-071]		0.26^[a]	
O=C(NCc1cccc(Cl)c1Cl)c1cc(N(Cc2ccccc2)Cc2ccccc2)ns1 [I-313]	5.01[a]		
COC(=O)Nc1nsc(C(=O)NCc2ccccc2F)c1Cl [I-239]	1.98[a]		
CCC(C)CNC(=O)c1snc(N)c1Cl (centres unmarked) [I-1014]	1.98[a]		
COc1ccc(CNc2nsc(C(=O)NCC3CC=CCC3)c2Cl)cc1 (centres unmarked) [I-078]	3.90[a]		
COc1ccc(CNc2nsc(C(=O)NC3(C4CCCCC4)CC3)c2Cl)cc1 [I-113]	4.69[a]		
O=C(Nc1nscc1Cl)c1ccc(F)cc1 [Z-A-002]		1.74^[a]	
Nc1nsc(C(=O)N(C2CCCCC2)C2CC2)c1Cl [I-980]	2.78[a]		
COc1cc(F)ccc1CNC(=O)c1snc(NC(=O)C(F)F)c1Cl [I-820]	2.23[a]		
CCOc1c(N)nsc1C(=O)NCc1c(F)cc(F)cc1F [I-724]	2.09[a]		
CCOc1c(N)nsc1C(=O)NCC1CCCCCC1 [I-728]	2.83[a]		
CCc1ccccc1CN(C(=O)c1snc(N)c1Cl)C1CC1 [I-153]	3.04[a]		
Nc1cc(C(=O)NCCc2ncc(C(F)(F)F)cc2Cl)sn1 [I-919]	2.01[a]		
Nc1nsc(C(=S)NCc2ccccc2F)c1Cl [I-1021]	2.73[a]		
Nc1nsc(C(=O)NCC2(F)CCCC2)c1Br [I-829]	1.83[a]		
Nc1nsc(C(=O)NCc2ccc(Br)cc2)c1Cl [I-372]	2.39[a]		
O=C(NCC1CCCCC1)c1snc(N=S2CCOCC2)c1Cl [II-090]		2.49^[a]	
Nc1nsc(C(=O)NCC2CCCCC2)c1N [I-1539]	1.37[a]		
O=C(Nc1ccc(Cl)cc1Cl)c1cc(N(Cc2ccccc2)Cc2ccccc2)ns1 [I-903]	5.74[a]		
CC1CCc2ccccc2N1C(=O)c1snc(N)c1Cl (centres unmarked) [II-101]		2.48	2.39

Structure (SMILES)	LogP	LogP [a]	LogP [b]
O=C(NCC1CCCO1)c1snc(N=C(c2ccccc2)c2ccccc2)c1Cl (centres unmarked) [II-005]		3.83^[a]	
C[C@@H]1CCCC[C@H]1NC(=O)c1snc(N)c1Br (relative stereo) [I-839]	2.49[a]		
Nc1nsc(C(=O)NCc2ccc(C3CC3)cc2)c1C1CC1 [I-606]	2.48[a]		
Cc1cc(F)ccc1CNC(=O)c1snc(N)c1Cl [I-784]	2.09[a]		
CCc1c(CNC(=O)c2snc(NCc3ccc(OC)cc3)c2Cl)cnn1CC [I-1333]	2.82[a]		
Nc1nsc(C(=O)NCc2c(F)ccc(F)c2F)c1Cl [I-129]	1.91[a]		
Cc1c(N)nsc1C(=O)NCc1ccc(Cl)cc1F [I-159]	2.00[a]		
O=C(NC(CCc1ccccc1)C1CCC1)c1snc(Cl)c1Cl (centres unmarked) [E-II-029]		5.04	4.91
Nc1cc(C(=O)NCCc2ccccc2)sn1 [I-854]	1.52[a]		
COc1ccc(CNc2nsc(C(=O)NCCCn3cccn3)c2Cl)cc1 [I-1194]	2.53[a]		
C#CCNc1nsc(C(=O)NCc2ccc(Cl)cc2)c1Cl [I-581]	2.97[a]		
Nc1nsc(C(=O)NCc2ccc(F)cc2)c1Br [I-831]	1.82[a]		
O=C(NC1CCCC2CCCCC21)c1snc(NCC(F)(F)F)c1NCC(F)(F)F (centres unmarked) [I-631]	4.82[a]		
COc1ccc(CNc2nsc(C(=O)N(C3CC3)C(C)c3cc(Cl)cc(Cl)c3)c2Cl)cc1 (centres unmarked) [I-928]	5.36[a]		
Nc1nsc(C(=O)NCc2ccccc2C(F)F)c1Cl [I-124]	2.01[a]		
O=C(NC(Cc1ccccc1)C1CC=CCC1)c1snc(Cl)c1Cl (centres unmarked) [E-II-034]		4.87	4.75
COc1ccc(CNc2nsc(C(=O)NC3(C#N)CCCC3C)c2Cl)cc1 (centres unmarked) [I-1220]	3.41[a]		
O=C(NC(c1ccccc1)C1CCCCC1)c1snc(Cl)c1Cl (centres unmarked) [E-II-031]		5.19	5.05
O=C(NCc1ccc(Cl)cc1)c1snc(N(Cc2ccccc2)Cc2ccccc2)c1-c1ccc(F)cc1 [I-321]	5.72[a]		
CCOc1c(N)nsc1C(=O)NCC1CCCCO1 (centres unmarked) [I-729]	1.66[a]		
C[C@H](NC(=O)c1snc(NCc2ccccc2)c1Cl)C1CCCCC1 [I-040]	4.74[a]		
COc1ccc(CNc2nsc(C(=O)NCC3(OC)CCC(C)CC3)c2Cl)cc1 (centres unmarked) [I-823]	4.33[a]		

Same assay, conditions: HPLC LC-UV, acidic range, 0.1% formic acid in water and acetonitrile as eluent

Structure (SMILES)	chromatographic logP
Nc1nsc(C(=O)O)c1Br [E-VIII-015, 3-amino-4-bromo-1,2-thiazole-5-carboxylic acid]	-0.07
Nc1nsc(C(=O)O)c1Cl [E-VIII-012, 3-amino-4-chloroisothiazole-5-carboxylic acid]	-0.13

— US20190110476A1, “NOVEL ISOTHIAZOLAMIDES, PROCESSES FOR THEIR PREPARATION AND THEIR USE AS FUNGICIDES” (priority 2014, published 2019)
